Measured values reported in US20070149456A1, “Epithelial sodium channel inhibiting agents and uses therefor” (University of Pittsburgh, priority 2005, published 2007).
Values joined by “and” are separate entries in the source; they are usually repeats but may differ in a detail not shown here. Equal values may be shown once. “Also recorded” adds a separate entry of the source. Read-outs that look alike come from different tables or passages of the source.

Target: T1, endogenous ENaC in mpkCCDc14 cells (Mus musculus, UniProt Q61180+Q9WU38+Q9WU39)
T1 construct: endogenous ENaC in a mouse cortical collecting duct (mpkCCDc14) cell line; endogenous in cells; host or cells: mpkCCDc14 mouse cortical collecting duct cell line
Experiment: Amiloride-sensitive short circuit current in mpkCCDc14 monolayers, Ussing chamber
Assay type: cell-based
Conditions: for Ki: mpkCCDc14 cells; for inhibition of amiloride sensitive short circuit currents: mpkCCDc14, increasing concentrations of peptide; for inhibition of transepithelial Na+ transport: peptide 3 μM in apical chamber; for reversibility of inhibition on washout: peptide 3 μM
Method: mpkCCDc14 Cell Culture—mpkCCDc14 cells were grown as previously reported (Bens, M., Vallet, V., Cluzeaud, F., Pascual-Letallec, L., Kahn, A., Rafestin-Oblin, M. E., Rossier, B. C., and Vandewalle, A. (1999), Corticosteroid-dependent sodium transport in a novel immortalized mouse collecting duct principal cell line, J. Am. Soc. Nephrol. 10, 923-934). mpkCCDc14 cells were subcultured onto permeable filter supports coated with collagen (0.4-μm pore size, 1-cm^2 surface area, Snapwell filters; Coming Inc., Acton, Mass.). Cells were kept on filters for at least 4 days in defined medium (Bens, M., Vallet, V., Cluzeaud, F., Pascual-Letallec, L., Kahn, A., Rafestin-Oblin, M. E., Rossier, B. C., and Vandewalle, A. (1999) J. Am. Soc. Nephrol. 10, 923-934 30) that was changed every second day. At least 24 h prior to the experiments, the culture medium was replaced with a minimal medium (without drugs or hormones) that contained only Dulbecco's modified Eagle's medium and Ham's F-12.
Short Circuit Current Measurements—Cell culture inserts were mounted in modified Ussing chambers (Harvard Apparatus, Holliston, Mass.), and the monolayers were continuously short-circuited with a voltage/current clamp system (Physiologic Instruments, San Diego, Calif.). A 2-mV bipolar pulse was applied periodically to measure the resistance of the monolayer. As previously described by Bridges et al. (Bridges, R. J., Newton, B. B., Pilewski, J. M., Devor, D. C., Poll, C. T., and Hall, R. L. (2001), Na+ transport in normal and CF human bronchial epithelial cells is inhibited by BAY 39-9437, Am. J. Physiol. 281, L16-L23 32, Na^+ transport in normal and CF human bronchial epithelial cells is inhibited by BAY 39-9437), the bath solution contained (in mM) 120 NaCl, 25 NaHCO3, 3.3 KH2PO4, 0.8 K2HPO4, 1.2 MgCl2, 1.2 CaCl2, and 10 glucose. The pH of this solution was 7.4 when gassed with a mixture of 95% O2-5% CO2 at 37° C.
(FIG. 6A) mpkCCDc14cells cultured on permeable membrane supports and mounted in a modified Ussing chamber were continuously short-circuited by a voltage clamp amplifier (Physiologic Instruments, San Diego, Calif.). Transepithelial resistance was monitored by applying a 4 mV bipolar pulse every 60 seconds. Where indicated, a 43 residue peptide corresponding to E144-K186 of mouse γ-ENaC (γ-peptide) was added to the apical chamber at a final concentration of 3 μM. […] Data presented as mean +/−standard error (n=8).
Vectors and Cell Culture—Wild-type, C-terminal and double epitope tagged mouse ENaC subunit cDNAs were previously described (Hughey, R. P., Mueller, G. M., Bruns, J. B., Kinlough, C. L., Poland, P. A., Harkleroad, K. L., Carattino, M. D., and Kleyman, T. R. (2003) J Biol Chem 278, 37073-37082 and Ahn, Y. J., Brooker, D. R., Kosari, F., Harte, B. J., Li, J., Mackler, S. A., and Kleyman, T. R. (1999), Cloning and functional expression of the mouse epithelial sodium channel, Am J Physiol 277, F121-129). The γ subunit mutations were generated in pcDNA3.1 (+) using a standard two-step PCR method. A cDNA clone (IMAGE #: 3600399) encoding full length mouse prostasin was obtained from Open Biosystems (Huntsville, Ala.) and sub-cloned into pcDNA3.1 (+) (Invitrogen, Carlsbad, Calif.). MDCK type 1 cells were a gift from Barry M. Gumbiner (Memorial Sloan-Kettering Cancer Center, New York) and were cultured as previously described (Lavelle, J. P., Negrete, H. O., Poland, P. A., Kinlough, C. L., Meyers, S. D., Hughey, R. P., and Zeidel, M. L. (1997), Low permeabilities of MDCK cell monolayers: a model barrier epithelium, Am J Physiol 273, F67-75). CCD (mpkCCDc14) cells were a gift from Alain Vandewalle (Institut National de la Santéet de la Recherche Médicale, Paris, France) and were cultured as previously described (Bens, M., Vallet, V., Cluzeaud, F., Pascual-Letallec, L., Kahn, A., Rafestin-Oblin, M. E., Rossier, B. C., and Vandewalle, A. (1999) J Am Soc Nephrol 10, 923-934).

T1 sequence (Q61180 1-205): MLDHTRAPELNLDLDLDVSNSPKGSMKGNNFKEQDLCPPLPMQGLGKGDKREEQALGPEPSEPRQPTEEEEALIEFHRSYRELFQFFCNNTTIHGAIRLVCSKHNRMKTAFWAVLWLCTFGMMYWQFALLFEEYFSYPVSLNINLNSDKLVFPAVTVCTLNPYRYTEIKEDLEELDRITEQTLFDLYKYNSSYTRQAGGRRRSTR
T1 sequence (Q61180 232-699): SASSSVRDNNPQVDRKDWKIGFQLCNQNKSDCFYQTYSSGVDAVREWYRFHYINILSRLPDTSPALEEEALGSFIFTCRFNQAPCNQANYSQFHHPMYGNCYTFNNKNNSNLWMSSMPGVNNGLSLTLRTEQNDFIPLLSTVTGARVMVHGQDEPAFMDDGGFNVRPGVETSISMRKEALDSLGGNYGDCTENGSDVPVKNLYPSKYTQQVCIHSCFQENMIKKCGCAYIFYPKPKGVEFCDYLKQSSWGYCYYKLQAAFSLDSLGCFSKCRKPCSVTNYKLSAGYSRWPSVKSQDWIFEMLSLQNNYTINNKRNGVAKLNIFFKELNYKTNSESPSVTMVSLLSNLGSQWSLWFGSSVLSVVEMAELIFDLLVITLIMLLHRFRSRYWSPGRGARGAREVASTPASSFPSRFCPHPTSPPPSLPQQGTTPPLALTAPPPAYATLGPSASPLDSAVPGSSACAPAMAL
T1 sequence (Q9WU38 whole entry): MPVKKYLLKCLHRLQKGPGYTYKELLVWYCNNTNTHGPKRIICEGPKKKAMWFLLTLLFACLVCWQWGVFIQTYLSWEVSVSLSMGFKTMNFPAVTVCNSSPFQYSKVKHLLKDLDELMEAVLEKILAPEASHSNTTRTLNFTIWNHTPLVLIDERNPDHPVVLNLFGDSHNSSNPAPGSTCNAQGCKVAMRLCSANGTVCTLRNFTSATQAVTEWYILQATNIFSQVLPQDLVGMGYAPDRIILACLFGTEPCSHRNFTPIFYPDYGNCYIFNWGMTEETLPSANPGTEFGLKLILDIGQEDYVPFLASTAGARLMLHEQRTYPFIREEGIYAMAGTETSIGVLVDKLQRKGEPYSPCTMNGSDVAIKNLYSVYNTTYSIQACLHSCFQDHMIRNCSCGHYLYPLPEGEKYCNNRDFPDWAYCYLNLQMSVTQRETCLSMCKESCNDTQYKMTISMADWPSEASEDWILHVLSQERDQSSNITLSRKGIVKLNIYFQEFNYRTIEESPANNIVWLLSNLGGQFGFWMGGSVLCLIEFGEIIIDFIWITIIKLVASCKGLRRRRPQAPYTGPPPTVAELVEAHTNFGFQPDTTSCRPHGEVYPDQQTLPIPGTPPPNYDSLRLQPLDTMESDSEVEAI
T1 sequence (Q9WU39 1-143): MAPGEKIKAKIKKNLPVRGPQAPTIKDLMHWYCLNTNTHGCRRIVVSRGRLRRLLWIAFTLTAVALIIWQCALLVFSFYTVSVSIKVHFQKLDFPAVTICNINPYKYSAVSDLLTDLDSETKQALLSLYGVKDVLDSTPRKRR
T1 sequence (Q9WU39 187-655): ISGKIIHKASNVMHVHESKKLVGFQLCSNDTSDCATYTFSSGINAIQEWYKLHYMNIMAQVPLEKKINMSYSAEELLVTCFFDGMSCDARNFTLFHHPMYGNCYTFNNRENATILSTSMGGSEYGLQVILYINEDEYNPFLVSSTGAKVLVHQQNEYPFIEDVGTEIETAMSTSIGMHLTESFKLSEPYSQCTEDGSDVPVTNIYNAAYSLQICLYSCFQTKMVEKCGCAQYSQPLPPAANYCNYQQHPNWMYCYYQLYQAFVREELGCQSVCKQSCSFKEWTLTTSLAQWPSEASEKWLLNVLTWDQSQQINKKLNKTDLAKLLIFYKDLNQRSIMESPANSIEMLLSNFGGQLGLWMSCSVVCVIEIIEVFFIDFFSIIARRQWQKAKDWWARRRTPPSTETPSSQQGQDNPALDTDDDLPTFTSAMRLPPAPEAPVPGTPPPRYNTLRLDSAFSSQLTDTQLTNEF

Substance: Ac-DLRGALPHPLQRLRTPPPPNPARSAR-NH2 [α-26]
- Ki (stated jointly for HBE or mpkCCDc14, read-out: Ki, block of endogenous ENaC activity): 50 to 100 µM

Substance: Ac-EAGSMRSTWEGTPPRFLNLIPLLVFNENEKGKARDFFTGRKRK-NH2 [γ-43]
- increase of the IC50 for amiloride block (CCD cells, 3 μM γ-43): 60%
- IC50 (mouse CCD (mpkCCDc14), nonlinear curve fitting, read-out: IC50, inhibition of short circuit currents): 2 to 3 µM and 3.2 µM
- inhibition of amiloride sensitive short circuit currents (listed as γ cleavage product): inhibited in a dose dependent manner
- inhibition of amiloride sensitive short circuit currents (listed as γ-peptide): inhibited in a dose dependant manner
- Ki (stated jointly for HBE and mpkCCDc14, read-out: apparent Ki, inhibition of endogenous ENaC activity): ~2 µM
- inhibition of transepithelial Na+ transport: rapidly inhibited; also recorded: marked inhibition
- inhibition of transepithelial Na+ transport (listed as γ-peptide): marked inhibition
- reversibility of inhibition on washout: reversible; also recorded: relieved by washout
- reversibility of inhibition on washout (listed as γ-peptide): reversibly inhibits; also recorded: relieved by wash out
